# Test results published in patent publication US8415115B2, “Reaction medium for methicillin-resistant Staphylococcus aureus (MRSA) bacteria” (Biomerieux, priority 2008, dated 2013).
# How the values were obtained:
# [1] = tested on: Methicillin-resistant Staphylococcus aureus (MRSA); test: Detection of MRSA strains (colored colonies) on chromID MRSA based media with alpha-glucosidase substrates and antibiotics; assay type: cell-based; conditions: Example B, alpha-glucosidase substrates
# Description: The media tested in the experiments hereinafter were media comprising the chromID MRSA medium (bioMérieux ref. 43 451) as basic medium, and comprising the following elements: • Medium T: chromID MRSA control medium (ref. 43 451), comprising in particular an X-N-methyl-alpha-glucoside substrate, at a concentration of 0.1 g/l, and Cefoxitin at 4 mg/1. • Medium S: medium T, also comprising an X-alpha-glucoside substrate, at a concentration of 25, 37, 45 or 50 mg/l. • Medium A: medium S (X-alpha-glucoside concentration: 45 mg/l), the Cefoxitin being substituted with Ceftriaxone, at a concentration of 1, 2, 4, 8, 16, 32 mg/l. • Medium B: medium S (X-alpha-glucoside concentration: 45 mg/l), the Cefoxitin being substituted with Cefotaxime at a concentration of 1, 2, 4, 8, 16, 32 mg/l. • Medium C: medium S (X-alpha-glucoside concentration: 45 mg/l), the Cefoxitin being substituted with Ertapenem at a concentration of 0.1, 0.25, 0.5, 0.75, 1 mg/l. • Medium D: medium S (X-alpha-glucoside concentration: 45 mg/l), the Cefoxitin being substituted with Cefoperazone at a concentration of 0.5, 1, 1.5, 2 mg/l. • Medium E: medium S (X-alpha-glucoside concentration: 45 mg/l), the Cefoxitin being substituted with Cefpodoxime at a concentration of 0.5, 1, 1.5, 2 mg/l. • Medium F: medium S (X-alpha-glucoside concentration: 45 mg/l), the Cefoxitin being substituted with a Cefoxitin/Cefotaxime concentration at the concentrations below:
# • Medium G: medium S (X-alpha-glucoside concentration: 45 mg/l), the Cefoxitin being substituted with a Cefoxitin/Ceftriaxone combination at the concentrations below:
# • Medium H: medium S (X-alpha-glucoside concentration: 45 mg/l), the Cefoxitin being substituted with a Cefoxitin/Ertapenem combination at the concentrations below:
# • Medium I: medium S (X-alpha-glucoside concentration: 45 mg/l), the Cefoxitin being substituted with a Cefoxitin/Cefpodoxime combination at the concentrations below:
# • Medium J: medium S (X-alpha-glucoside concentration: 45 mg/1), the Cefoxitin being substituted with a Cefoxitin/Cefoperazone combination at the concentrations below:
# • Medium K: medium S (X-alpha-glucoside concentration: 45 mg/l), the Cefoxitin being substituted with a Cefoxitin/Cefotaxime combination, at the concentrations below, also comprising a mixture of inhibitors that favour the growth of Staphylococcus aureus.
# • Medium L: medium S (X-alpha-glucoside concentration: 45 mg/l), the Cefoxitin being substituted with Cefdinir at a concentration of 0.25, 0.5, 1, 2, 4, 8 mg/l. • Medium M: medium S (X-alpha-glucoside concentration: 45 mg/l), the Cefoxitin being substituted with a Cefoxitin/Cefdinir combination at the concentrations below: […]
# The strains detected correspond to the strains forming colored colonies on the medium.
# MSSAs = test: Sub-inhibitory concentration: below the antibiotic concentration required for inhibition of MSSAs in a culture medium; assay type: cell-based, Staphylococcus aureus; conditions: culture medium such as chromID S. aureus medium
# Description: The sub-inhibitory concentration is intended to mean a concentration below the concentration of antibiotic required for inhibition of MSSAs, in a culture medium suitable for searching for S. aureus using a biological sample, such as the chromID™ S. aureus medium (bioMerieux). This concentration is below approximately 3 mg/l in the case of Cefoxitin, approximately 2 mg/l in the case of Cefotaxime, approximately 1 mg/l in the case of Ertapenem, approximately 2 mg/l in the case of Cefoperazone, approximately 2 mg/l in the case of Cefpodoxime, and approximately 1 mg/l in the case of Cefdinir.
Compound,"Sensitivity and specificity, MRSAs distinguished from MSSAs (in words) [1]",Sub-inhibitory concentration (MSSAs) [mg/L]
CCN1CCN(C(=O)N[C@@H](C(=O)N[C@@H]2C(=O)N3C(C(=O)O)=C(CSc4nnnn4C)CS[C@H]23)c2ccc(O)cc2)C(=O)C1=O [Cefoperazone],"did not make it possible to obtain, on their own, a sensitivity and a specificity enabling MRSAs to be distinguished from MSSAs",–
CO/N=C(\C(=O)N[C@@H]1C(=O)N2C(C(=O)O)=C(COC(C)=O)CS[C@H]12)c1csc(N)n1 [Cefotaxime],"did not make it possible to obtain, on their own, a sensitivity and a specificity enabling MRSAs to be distinguished from MSSAs",–
CO[C@@]1(NC(=O)Cc2cccs2)C(=O)N2C(C(=O)O)=C(COC(N)=O)CS[C@@H]21 [Cefoxitin],–,< 3
CO/N=C(\C(=O)N[C@@H]1C(=O)N2C(C(=O)O)=C(CSc3nc(=O)c(=O)[nH]n3C)CS[C@H]12)c1csc(N)n1 [Ceftriaxone],"did not make it possible to obtain, on their own, a sensitivity and a specificity enabling MRSAs to be distinguished from MSSAs",–
C[C@@H](O)[C@H]1C(=O)N2C(C(=O)O)=C(S[C@@H]3CN[C@H](C(=O)Nc4cccc(C(=O)O)c4)C3)[C@H](C)[C@H]12 [Ertapenem],"did not make it possible to obtain, on their own, a sensitivity and a specificity enabling MRSAs to be distinguished from MSSAs",–
